# Measurements taken from PMC8124228, “New Hybrids Based on Curcumin and Resveratrol: Synthesis, Cytotoxicity and Antiproliferative Activity against Colorectal Cancer Cells” (Molecules, 2021).
# Like-named read-outs stand apart in the source and are kept apart here.
# Columns and labels:
# [1] = tested on: MDA-MB-231/ATCC, PC-3, SNB-75, RPMI-8226, MOLT-4, CCRF-CEM and HS 578T cell lines; set-up: method as in doi:10.1007/s00044-014-1146-2; conditions: mean over cell lines; cited from earlier work
# SW480 cells = tested on: SW480 cells; set-up: method as in doi:10.1007/s00044-018-2202-0; conditions: SW480, 48 h; cited from earlier work
# [2] = tested on: SW620 cells (metastatic derivative of SW480); experiment: Sulforhodamine B (SRB) cytotoxicity assay, SW620; format: cell-based, human; conditions: for SI (selectivity index): IC50 CHO-K1 / IC50 SW620; for IC50: Homo sapiens, SW-620, SRB, mean ± SE
# Description: (§1) To determine the cytotoxic effect of the synthesized hybrids, they were evaluated against SW480 human colon adenocarcinoma cells, its metastatic derivative SW620 and the non-malignant CHO-K1 cell line, through the sulforhodamine B assay. In this experiment, 5-FU was also included as the reference drug, as well as the parental subunits (curcumin and resveratrol) and the equimolar mixture of these. Cytotoxicity was reported as 50% inhibitory concentration (IC50 values).
# (§2) Biological assays were performed using an adenocarcinoma colon cancer cell line (SW480), its metastatic derivative (SW620) and non-malignant cells (CHO-K1). These were obtained from The European Collection of Authenticated Cell Cultures (ECACC, England) and maintained in Dulbecco’s Modified Eagle Medium, supplemented with 10% heat-inactivated (56 °C) horse serum, 1% penicillin/streptomycin and 1% non-essential amino acids (Gibco Invitrogen, Carlsbad, USA). For all experiments, horse serum was reduced to 3%, and the medium was supplemented with […], 5 ng/mL selenium and […] (ITS-defined medium; Gibco, Invitrogen, Carlsbad, CA, USA).
# (§3) Cytotoxicity of the synthesized hybrids, lead and reference compounds was evaluated through Sulforhodamine B (SRB) assay, a colorimetric test that is based on staining of total cellular protein of adherent cells. Cells were seeded to a final density of 20,000 cells/well in 96-well tissue culture plates and incubated at 37 °C in a humidified atmosphere at 5% CO2. All cultures were allowed to grow for 24 h, and afterward they were treated with DMSO (vehicle control 1%) or increasing concentrations (0.01–200 µM) of the synthesized hybrids, as well as curcumin and resveratrol (lead compounds), the equimolar mixture of these and 5-fluorouracil (5-FU; the standard drug). After treatment, cells were fixed with trichloroacetic acid (50% v/v) (MERCK) for a period of 1 h at 4 °C. Cell proteins were determined by staining with 0.4% (w/v) SRB (Sigma-Aldrich, United States), and then they were washed with 1% acetic acid for the removal of unbound SRB and left for air-drying. Protein bound SRB was solubilized in 10 mM Tris-base and the absorbance was measured at 492 nm in a microplate reader (Mindray MR-96A). All experiments were performed at least in triplicate.
# SW480 cell line = experiment: Antiproliferative activity (SRB, 2-8 days), SW480; format: cell-based; conditions: Homo sapiens, vehicle control = 100%, read-out: Viability (%) ± SE; for viability at 10 µM: SW480, 10 µM; for viability at 160 µM: SW480, 160 µM
# Description: (§4) With the aim of testing the antiproliferative effect of the most cytotoxic and selective hybrids (3e and 3i for SW480 and 3a, 3e and 3k for SW620), they were analyzed through a longer period. According to the results in comparison with the control, it was observed that the activity was time- and concentration-dependent, as evidenced by the decrease in cell viability in the highest concentrations (Table 2). […] Similar results were presented in a previous investigation by Herrera-R et al. (2018), reporting the antiproliferative effect and morphological changes in SW480 cells after treatment with different hybrids using a stilbene moiety, which highlights the potential of this scaffold in the approach to design molecules with potential activity against CRC.
# (§5) Briefly, cells were seeded to a final density of 2500 cells/well in 96-well tissue culture plates and incubated in the same conditions described for cytotoxicity. […] Culture media was replaced every 48 h. After each incubation time, cells were fixed, stained and read as previously described for this technique.
# [3] = tested on: SW480 human colon adenocarcinoma cells; experiment: Sulforhodamine B (SRB) cytotoxicity assay, SW480; format: cell-based; conditions: for SI (selectivity index): IC50 CHO-K1 / IC50 SW480; for IC50: SRB, mean ± SE
# Description: as §1, §2, §3
# [4] = tested on: non-malignant CHO-K1 cell line; experiment: Sulforhodamine B (SRB) cytotoxicity assay, non-malignant cells; format: cell-based; conditions: Cricetulus griseus, mean ± SE
# Description: as §1, §2, §3
# [5] = tested on: MCF-7 human breast cancer cell line; set-up: method as in PMID 26174555; conditions: cited from earlier work
# [6] = tested on: A549 human lung cancer cells; set-up: method as in PMID 26174555; conditions: cited from earlier work
# [7] = tested on: H-460 human lung cancer cells; set-up: method as in PMID 26174555; conditions: cited from earlier work
# [8] = tested on: SKOV-3 ovarian carcinoma cells; set-up: method as in PMID 26174555; conditions: cited from earlier work
# [9] = tested on: LNCaP (human androgen-dependent prostate cancer) cell line; set-up: method as in PMID 26341135; conditions: cited from earlier work
# SW620 cell line = experiment: Antiproliferative activity (SRB, 2-8 days), SW620; format: cell-based, human; conditions: for viability at 10 µM / viability at 160 µM: Homo sapiens, vehicle control = 100%, read-out: Viability (%) ± SE; for viability at 10 µM: SW620, 10 µM; for viability at 160 µM: SW620, 160 µM
# Description: as §4, §5
# tubulin polymerization [10] = tested on: tubulin polymerization; set-up: method as in PMID 26515041; conditions: evaluated in HCT-116 cells; cited from earlier work
# B16-F10 cell line = conditions: cited from earlier work
# HepG2 cell line = conditions: cited from earlier work
# tubulin polymerization [11] = conditions: cited from earlier work
# A549 cell line = conditions: cited from earlier work
# [12] = tested on: PANC-1 human cancer cells; set-up: method as in doi:10.1007/s00044-016-1514-1; conditions: cited from earlier work
# [13] = tested on: MDA-MB-231 human cancer cells; set-up: method as in doi:10.1007/s00044-016-1514-1; conditions: cited from earlier work
# SiHa human cancer cells = tested on: SiHa human cancer cells; set-up: method as in doi:10.1007/s00044-016-1514-1; conditions: cited from earlier work
# [14] = Homo sapiens, SW480, 24 h, 24 h
smiles,measurement,setting,value
COc1ccc(C2NC(=O)NC(/C=C/c3ccc(O)c(OC)c3)=C2C(=O)/C=C/c2ccc(O)c(OC)c2)cc1 (centres unmarked) [Curcumin–monastrol hybrid],mean growth percentage (GP),[1],88.90
COc1cc(/C=C/c2ccc3ccc(=O)oc3c2)cc(OC)c1O [Figure 1H],IC50,SW480 cells,1.01 µM
"COc1cc(/C=C/C(=O)c2ccc(/C=C/c3ccc(OC)c(OC)c3)cc2)ccc1O [Hybrid 3i, (E)-1-(4-((E)-3,4-dimethoxystyryl)phenyl)-3-(4-hydroxy-3-methoxyphenyl)prop-2-en-1-one]",SI (selectivity index),[2]; 24 h,1.32
same,SI (selectivity index),[2]; 48 h,0.96
same,IC50,[2]; 24 h,78.9 ± 6.2 µM
same,IC50,[2]; 48 h,29.3 ± 4.73 µM
same,viability at 10 µM,"SW480 cell line; 48 h, day 2",54.4 ± 7.4%
same,viability at 160 µM,"SW480 cell line; 48 h, day 2",30.3 ± 8.5%
same,viability at 10 µM,"SW480 cell line; 96 h, day 4",2 ± 0.2%
same,viability at 160 µM,"SW480 cell line; 96 h, day 4",1.7 ± 0.1%
same,viability at 10 µM,"SW480 cell line; 144 h, day 6",1.6 ± 0.2%
same,viability at 160 µM,"SW480 cell line; 144 h, day 6",0.1 ± 0.1%
same,viability at 10 µM,"SW480 cell line; 192 h, day 8",1.6 ± 0.3%
same,viability at 160 µM,"SW480 cell line; 192 h, day 8",0.2 ± 0.1%
same,SI (selectivity index),[3]; 24 h,2.09
same,IC50,[3]; 48 h,11.5 ± 2.78 µM
same,IC50,[3]; [14],49.7 ± 4.56 µM
same,IC50,"[3]; Homo sapiens, SW480, 48 h, 48 h",11.5 to 29.2 µM
same,melting point,,67 to 70 °C
same,IC50,[4]; 24 h,104 ± 5.03 µM
same,IC50,[4]; 48 h,28.3 ± 9.3 µM
C#CCn1c(=O)c(/C=C/C(=O)CC(=O)/C=C/c2ccc(O)c(OC)c2)cc2cc(C)ccc21 [curcumin–quinolone hybrid],IC50,[5],36.2 µM
same,IC50,[6],23.9 µM
same,IC50,[7],21.8 µM
same,IC50,[8],12.8 µM
CCn1ccnc1/C=C/C(=O)/C=C/c1coc2ccccc2c1=O [Hybrid curcum–imidazol],IC50,[9],1 µM
"COc1ccc(/C=C/c2ccc(C(=O)/C=C/c3ccc(O)c(OC)c3)cc2)c(OC)c1 [Hybrid 3e, (E)-1-(4-((E)-2,4-Dimethoxystyryl)phenyl)-3-(4-hydroxy-3-methoxyphenyl)prop-2-en-1-one]",SI (selectivity index),[2]; 24 h,1.81
same,IC50,[2]; 24 h,55.5 ± 8 µM
same,IC50,[2]; 48 h,20.4 ± 3.51 µM
same,viability at 10 µM,"SW480 cell line; 48 h, day 2",53.9 ± 5.3%
same,viability at 160 µM,"SW480 cell line; 48 h, day 2",32.9 ± 1.3%
same,viability at 10 µM,"SW480 cell line; 96 h, day 4",2.3 ± 0.3%
same,viability at 160 µM,"SW480 cell line; 96 h, day 4",0.9 ± 0.2%
same,viability at 10 µM,"SW480 cell line; 144 h, day 6",3.8 ± 2.7%
same,viability at 160 µM,"SW480 cell line; 144 h, day 6",0.5 ± 0.2%
same,viability at 10 µM,"SW480 cell line; 192 h, day 8",5.2 ± 0.3%
same,viability at 160 µM,"SW480 cell line; 192 h, day 8",0.1 ± 0.1%
same,SI (selectivity index),[3]; 24 h,1.85
same,IC50,[3]; [14],54.4 ± 6.93 µM
same,viability at 10 µM,"SW620 cell line; SW-620, 48 h, day 2",80.6 ± 4%
same,viability at 160 µM,"SW620 cell line; SW-620, 48 h, day 2",5 ± 1%
same,viability at 10 µM,"SW620 cell line; SW-620, 96 h, day 4",11.1 ± 4.2%
same,viability at 160 µM,"SW620 cell line; SW-620, 96 h, day 4",4.1%
same,viability at 10 µM,"SW620 cell line; SW-620, 144 h, day 6",4.1 ± 2.2%
same,viability at 160 µM,"SW620 cell line; SW-620, 144 h, day 6",0%
same,viability at 10 µM,"SW620 cell line; SW-620, 192 h, day 8",0.6 ± 0.5%
same,viability at 160 µM,"SW620 cell line; SW-620, 192 h, day 8",0%
same,reduction in viability,"SW620 cell line; SW620, after two days of treatment, concentrations higher than 10 µM",significant reduction in viability
same,melting point,,78 to 82 °C
same,IC50,[4]; 24 h,100.6 ± 1 µM
same,IC50,[4]; 48 h,43.3 ± 6.84 µM
COc1cc(/C=C/C(=O)/C=C/c2cc(OC)c(OC)c(OC)c2)ccc1CCc1cn(CCN2C(=O)C(=O)c3ccccc32)nn1,inhibition of tubulin polymerization at (concentration),tubulin polymerization [10],1.2 µM
COc1ccc(/C=C/c2cc(OC)cc(OC)c2/C=C/C(=O)c2ccc(C)c(C)c2)cc1 [Figure 1I],IC50,B16-F10 cell line,0.1 µg/mL
same,IC50,HepG2 cell line,0.2 µg/mL
same,tubulin polymerization inhibitory activity at (concentration),tubulin polymerization [11],2.6 µg/mL
same,IC50,A549 cell line,1.4 µg/mL
COc1cc(/C=C/c2ccc(NC(=O)CSc3nnc(-c4cccc(C(F)(F)F)c4)o3)cc2)cc(OC)c1 [Resveratrol–oxadiazole hybrid F],GI50,[12],< 0.1 µM
same,GI50,[13],< 0.1 µM
same,GI50,SiHa human cancer cells,< 0.1 µM
